Source: article PMC8333425, “Discovery of a dual Ras and ARF6 inhibitor from a GPCR endocytosis screen” (Nature Communications, 2021)
pIC50: −log10 of the molar value. Values joined by “and” are separate entries in the source; they are usually repeats but may differ in a detail not shown here. Equal entries are not always repeated. “Also recorded” adds a separate entry of the source.

Columns and labels:
[1] = test system: ERK1/2 activation by AT1R; experiment: Western blot of AT1R-mediated ERK1/2 activation in Gαq/11 KO cells (with or without β-arrestin2); type: cell-based, human; settings: for ERK1/2 activation by AT1R in cells lacking Gαq/11, supplemented or not with β-arrestin: 50 μM
Description: HEK293SL cells (10^5 cells per well) were seeded in a poly-L-lysine-coated six-well plate and transiently transfected with 3 μg Flag-AT1R, HA-B2R or HA-β2AR and/or 500 ng Flag-MEK1-WT, Flag-MEK1-DD, Flag-BRAF-WT, Flag-BRAF-V600E, Flag-K-Ras-WT, Flag-K-Ras-G12V, HA-ARF6-WT, or HA-ARF6-T27N. Gαq/11 KO and βarr1/2 KO cells were seeded onto 100 mm dishes at a density of 10^6 cells per dish. Next day, cells were transfected with 3 μg AT1R alone or along with 500 ng of β-arrestin2 using PEI. After 18 h of transfection, cells were detached and re-seeded onto poly-L-lysine coated 12-well plates (~1.5–2 × 10^5cells/well) for subsequent experiments. Forty-eight hours post transfection, in a 37 °C water bath, cells were serum-starved for 30 min, pretreated with DMSO (0.1%) or compound 21/Rasarfin (50 µM or at indicated concentrations) for 30 min, then stimulated or not with the indicated ligand [AngII (1 µM), BK (1 µM), Iso (10 µM) or EGF (100 ng/ml)] at indicated times. Cells were put on ice, washed with PBS and solubilized in 2x laemmli buffer (250 mM Tris–HCl pH 6.8, 2% SDS (w/v), 10% glycerol (v/v), 0.01% bromophenol blue (w/v) and 5% β-mercaptoethanol (v/v)) by heating at 65 °C for 15 min. Lysates were resolved on 10 or 14% SDS-PAGE, transferred to nitrocellulose membranes and immunoblotted for p-ERK1/2, ERK1/2, p-Akt, Akt, HA, Myc, β-actin or FLAG. ImageLab 5.2 software was used to quantify the digital blots as fold of the phosphorylated protein over total protein, which were then normalized as indicated in the figure legends. Uncropped immunoblots are provided in the Source Data file.

[2] = test system: B2R; experiment: Endosomal BRET assay of agonist-mediated B2R internalization (B2R-RlucII / Endo-rGFP); type: cell-based, human
Source text: We performed a HT campaign in HEK293 cells using the bystander endosomal BRET sensor, which consists of a Renilla luciferase (RlucII)-tagged AT1R and an acceptor renilla GFP (rGFP) anchored to endosomes through an Endofin-FYVE (Endo-rGFP) domain[12]. AngII-mediated trafficking of AT1R to endosomes was screened against commercial libraries of ~115,000 small molecules (Fig. 1a and Supplementary Data 1). Because our assay is based on luminescence and fluorescence, we excluded 6610 compounds that quenched more than 50% of the luciferase or GFP signals. After excluding 5 AT1R antagonists, we conserved hit compounds blocking by more than 40%, as well as those potentiating by more than 100% receptor internalization. From this collection of 943 compounds, a second validation on AT1R internalization was performed using the same BRET assay, as well as on the agonist-mediated B2R internalization, this time using B2R-RlucII and Endo-rGFP. Only compounds that were revalidated on AT1R and affected B2R endocytosis were kept, which included forty hits (20 potentiators and 20 inhibitors) (Fig. 1b and Supplementary Data 2). We focused on inhibitors that were commercially available at the beginning of the project and tested their cell toxicity by microscopy, looking at cells expressing B2R tagged with YFP, which highlights cell contours and potential morphological changes, such as rounding up of cells following treatment with 50 μM of the compounds that may have indicated cell death. None of the inhibitors tested caused abnormal cell morphological changes when cells were treated with compounds as compared to DMSO-treated cells. Inhibitors were also assessed in terms of structure novelty, derivatization potential, and commercial availability of analogs (within 95–98% similarity from Tanimoto metric, Sci-Finder, https://scifinder-n.cas.org), for structure-activity relationship studies (SAR). They were scored 1–5, from best to worst. We excluded compounds with potential nucleophilic reactivity (e.g., Michael addition: compounds 7, 26, and 27), those reported to have biological activities (compounds 8, 20, 25, 30, and 35) and/or showing autofluorescence (compound 26). Compound 19 ranked high, but only had one other molecule with a similar structure available. Although other molecules could be interesting in their own rights as endocytosis inhibitors (e.g., compounds 1, 9, 11, 12, 13, 24, 31, and 37), we focused on compound 21 (Fig. 1c) because not only did it rank high in our analysis, but it was also the only compound with substantially more similar analogs commercially available at the time of these investigations. In the screen and the follow-up validation assay, 21 inhibited more than 50% AT1R internalization and more than 65% B2R internalization (Supplementary Data 2). […] Because β-arrestins are critically involved in GPCR endocytosis and trafficking in cells, we assessed 21’s effects on β-arrestins’ recruitment to AT1R and B2R at the PM using a BRET assay, as well as their trafficking into endosomes by microscopy.
HEK293SL cells were seeded at a density of 7.5 × 10^5 cells per 100-mm dish and 24 h later, transiently transfected as such. For receptor internalization experiments, cells were transfected with 0.12 μg AT1R-RlucII, B2R-RlucII, or β2AR-RlucII and 0.48 μg of either rGFP-CAAX (to assess removal from the PM) or rGFP-FYVE (to assess accumulation in the endosomes). For β-arrestin recruitment assays, cells were transfected with 0.48 μg of receptor-YFP along with 0.12 μg of β-arrestin-RlucII. For β-arrestin/AP-2 binding experiments, cells were transfected with 1 μg Flag-AT1R, 1 μg β2-Adaptin-YFP, and 0.12 μg β-arrestin2-RlucII. For G protein activation, cells were transfected with 3 μg of sp-Flag-AT1R along with either 4.5 μg of the Gαq-polycistronic BRET sensor or 0.24 μg of the Gαi3-RlucII and 0.6 μg of GFP10-Gγ2 and Gβ1 sensors or 0.12 μg PKN-RBD-RlucII and 0.48 μg of rGFP-CAAX. […]

[3] = test system: ERK1/2 activation by V2R; experiment: Western blot of V2R-mediated ERK1/2 activation (rebuttal Figure 1); type: cell-based, human; settings: Barbadin 100 µM
[4] = test system: HEK293 cells; settings: Barbadin 100 µM; cited from earlier work
[5] = Gq/11 KO cells + barr2, Time 0 min

## CC(C)C(=O)N1CCN(c2ccc(NC(=O)c3cc4ccccc4o3)cc2Cl)CC1 [Compound 21]
[1]
  ERK1/2 activation by AT1R in cells lacking Gαq/11, supplemented or not with β-arrestin: efficiently inhibited ERK1/2 activation
[1]; listed as Rasarfin
  ERK1/2 activation by AT1R in cells lacking Gαq/11, supplemented or not with β-arrestin: totally blocked
[1]; [5]
  ERK1/2 activation relative to time 0 (S_Fig.4a): 1
  Predicted (LS) mean diff. DMSO - Comp 21 (Bonferroni's multiple comparisons test): 0
[1]; Gq/11 KO cells + barr2, Time 5 min
  Predicted (LS) mean diff. DMSO - Comp 21 (Bonferroni's multiple comparisons test): 5.112
[1]; Gq/11 KO cells + barr2, Time 20 min
  Predicted (LS) mean diff. DMSO - Comp 21 (Bonferroni's multiple comparisons test): 2.869
[1]; Gq/11 KO cells, Time 0 min
  ERK1/2 activation relative to time 0 (S_Fig.4a): 1
  Mean Diff. DMSO - Comp 21 (Bonferroni's multiple comparisons test): 0
[1]; Gq/11 KO cells, Time 5 min
  Mean Diff. DMSO - Comp 21 (Bonferroni's multiple comparisons test): 14.92
[1]; Gq/11 KO cells, Time 5 min, listed as Comp 21
  ERK1/2 activation relative to time 0 (S_Fig.4a): 0.6393 and 0.9475 and 0.8926 and 0.5297
[1]; Gq/11 KO cells, Time 20 min
  Mean Diff. DMSO - Comp 21 (Bonferroni's multiple comparisons test): 7.116
[2]; Homo sapiens, BK, into endosomes, read-out: IC50 for inhibition of B2R internalization
  pIC50: 4.96
[2]; Log [Comp21] (M) -4.3
  B2R internalization into endosomes, ligand-promoted BRET (Mean): 20.7288 percent compared to DMSO
[2]; Log [Comp21] (M) -4.6
  B2R internalization into endosomes, ligand-promoted BRET (Mean): 30.2526 percent compared to DMSO
[2]; Log [Comp21] (M) -5
  B2R internalization into endosomes, ligand-promoted BRET (Mean): 61.9767 percent compared to DMSO
[2]; Log [Comp21] (M) -5.3
  B2R internalization into endosomes, ligand-promoted BRET (Mean): 83.8073 percent compared to DMSO
[2]; Log [Comp 21] (M) -6
  B2R internalization into endosomes, ligand-promoted BRET (Mean): 104.977 percent compared to DMSO
[2]; Log [Comp21] (M) -6.3
  B2R internalization into endosomes, ligand-promoted BRET (Mean): 107.04 percent compared to DMSO
[2]; Log [Comp 21] (M) -7
  B2R internalization into endosomes, ligand-promoted BRET (Mean): 102.555 percent compared to DMSO
[2]; follow-up validation assay
  inhibition of B2R internalization: more than 65%
[2]; one experiment, negative = potentiation
  B2R Inhibition (%DMSO): 66.5725 %DMSO

## Nn1cnc2scc(-c3ccc(Cc4ccccc4)cc3)c2c1=O [Barbadin, reference compound]
[3]
  V2R-mediated ERK1/2 phosphorylation in HEK293 cells: potent inhibition
[4]
  toxicity to HEK293 cells (flat, cobblestone appearance retained): non-toxic to cells; also recorded: nontoxic
